Reference: patent publication US20120258938A1, “Enzymatic Production or Chemical Synthesis and Uses for 5,7-Dienes and UVB Conversion Products Thereof” (priority 2008, published 2012)

Key:
[1] = tested on: normal epidermal keratinocytes; assay: Flow cytometry DNA content, normal epidermal keratinocytes; type: cell-based, human; conditions: 10 nM
CYP24 promoter = assay: CYP24-Luc reporter in normal epidermal keratinocytes; type: cell-based, human; conditions: 24 h
Excerpt: The CYP24-Luc construct was a generous gift from Dr Tai Cheng (Boston University Medical Campus, Core Lab Director). It was originally developed by Vaisanen et al. (27). The details of the pLuc construct have been described previously (28-29). Normal epidermal keratinocytes were transfected using Lipofectamine Plus (Invitrogen, Carlsbad, Calif.) in Epilife medium with firefly luciferase reporter gene plasmid and with phRL-TK (expresses Renilla luciferase and serves as normalization control; Promega, Madison, Wis.). After transfection, cells were incubated for 24 hours in EpiLife medium with HKGS. Cells were then transferred to fresh media containing the compounds to be tested or vehicle (ethanol) and incubated for 24 hours. The firefly luciferase and Renilla luciferase signals were recorded with a TD-20/20 luminometer (Turner Designs, Sunnyvale, Calif.); background luminescence was subtracted and the resulting promoter-specific firefly signal was divided by the Renilla signal (proportional to the number of transfected cells). The values obtained were divided by the mean of control (untreated) cells.

[2] = tested on: immortalized normal epidermal melanocytes (PIG1 line); assay: Proliferation of PIG1 melanocytes; type: cell-based; conditions: PIG1, 72 h
NFκB = assay: NFκB-Luc reporter in HaCaT keratinocytes; type: cell-based, human; conditions: 100 nM
Method: HaCaT keratinocytes were transfected with NFκB-Luc construct using Lipofectamine Plus (Invitrogen, Carlsbad, Calif.) in DMEM medium with firefly luciferase reporter gene plasmid and with phRL-TK (expresses Renilla luciferase and serves as normalization control; Promega, Madison, Wis.). After transfection cells were incubated for 24 h in complete medium, and then after change to fresh media treated with drug or vehicle (ethanol) at the concentration of 10 nM for 30 minutes, 1 h, 4 h, 16 h and 24 h. The firefly luciferase and Renilla luciferase signals were recorded with a TD-20/20 luminometer (Turner Designs, Sunnyvale, Calif.); background luminescence was subtracted and the resulting promoter specific firefly signal was divided by the Renilla signal (proportional to the number of transfected cells). The values obtained were divided by the mean of control (untreated) cells.

[3] = tested on: SK Mel 188 human melanoma cells; assay: Soft agar colony formation, SKMEL 188 melanoma; type: cell-based
Method: Growth and survival of prostate cancer cells (PC3) and melanoma cells SKMEL 188 and AbC1 was determined by following their ability to form colonies in soft agar. Cells growing in monolayer culture were trypsinized and resuspended (1,000 cells/well) in 0.25 ml medium containing 0.4% agarose and 5% charcoal stripped serum (HyClone).
Cell suspensions were added to 0.8% agar layer in 24 well plates. […] Each condition was tested in quadruplicate. An ethanol solvent control (amount of ethanol equivalent to test) as well as a media-only control was included in the assay. Cells were allowed to grow at 37° with 5% CO2 over two weeks with secosteroids in fresh media (100 μL) being added after every 72 h. Soft agar colonies were scored and stained with 0.5 mg/ml MTT reagent (Promega), 500 μL/well after two weeks. Colonies were then counted under the microscope and number of units was calculated as number of colonies formed divided by the number of cells seeded×100.

[4] = tested on: human prostate carcinoma cell line PC-3; assay: Proliferation of PC-3 prostate carcinoma cells; type: cell-based; conditions: PC-3, 72 h
Method: Cells were seeded in 96-well plate and incubated with 20-hydroxycholecalciferol in DMEM medium containing 5% FBS for 48 h (FIG. 25A) or 72 h (FIG. 25C) or for 24 h after a 12 h synchronization in serum free medium (FIG. 25D). […] was added for a final 18 h (FIGS. 25A, 25D) or 12 h (FIG. 25C) of incubation or cells were assessed with sulforhodamine assay (FIG. 25C). Data is shown as mean±SEM (n=5; FIG. 24C) or mean±SEM (n=6; FIGS. 24A, 24C, 24D) and was analyzed using GraphPrism 4.0.

MG-63 = assay: Flow cytometry cell cycle and subG1, MG-63; type: cell-based, human; conditions: MG-63, 24 h
Method: MD-MBA-231, MG-63, PC-3, and WM164 cells were seeded into Petri dishes and then incubated for 24 h with 20-hydroxycholecalciferol in DMEM medium containing 5% FBS. Then cells were fixed, DNA stained and samples read with flow cytometer as described (7). Data was analyzed with Cell Quest (BD Biosciences). Cell cycle phases were assessed in viable cell populations and subG1 contents were calculated within whole cell population.

cytokeratin 14 = assay: Real-time RT PCR cytokeratin 14 mRNA, normal epidermal keratinocytes; type: cell-based, human; conditions: 10^−10 M
Method: RNA was extracted using an Absolutely RNA RT-PCR Miniprep Kit (Stratagene, La Jolla, Calif.). Real time PCR and reverse transcription products were purchased from Applied Biosystems, Foster City, Calif. Reverse transcription was performed using Taqman® Reverse Transcription Reagents. The following PCR products were used: cytokeratin 14: Hs00265033_m1, involucrin: Hs00846307_s1, CYP27A1: Hs00168003_ml, CYP27B1: Hs00168017_ml, 18SrRNA: Hs99999901_s1. The reaction was performed with Taqman® Universal PCR Master Mix; data were collected on an ABI Prism 7700 and analyzed on Sequence Detector 1.9.1. Specific gene amounts were related to 18SrRNA by comparative CT method.

C=C1/C(=C\C=C2/CCC[C@]3(C)[C@@H]([C@H](C)CCCC(C)(C)O)CC[C@@H]23)C[C@@H](O)C[C@@H]1O [1α,25-dihydroxycholecalciferol, (5Z,7E)-9,10-secocholesta-5,7,10(19)-triene-1α,3β,25-triol, reference compound]
cells in G1/0 ([1]; 24 h): 52±2%
cells in G2/M ([1]; 24 h): 35±5%
cells in S phase ([1]; 24 h): 13±7%
stimulation of transcriptional activity of the CYP24 promoter (CYP24 promoter): ~21 fold
proliferation [2]: Dose dependent inhibition of the proliferation

C=C1CC[C@H](O)C/C1=C/C=C1\CCC[C@]2(C)[C@@H](C(C)=O)CC[C@@H]12 [pD3, (5Z,7E)-3β-hydroxy-9,10-secopregna-5,7,10(19)-trien-20-one]
NFκB-Luc activity (NFκB): inhibits NFκB-Luc activity
colony formation on soft agar ([3]; SKMEL-188, dose dependent): suppress colony formation on soft agar

C=C1CC[C@H](O)C/C1=C/C=C1\CCC[C@]2(C)[C@@H](C(C)(O)CC(O)CC(C)C)CC[C@@H]12 (stereo partly drawn) [20,23-dihydroxycholecalciferol, (5Z,7E)-9,10-secocholesta-5,7,10(19)-triene-3β,20,23-triol]
NFκB-Luc activity (NFκB): inhibition
less colonies bigger than 0.5 mm ([3]; Sk Mel 188, 0.1 nM and 100 nM): approximately 50%

C=C1CC[C@H](O)C/C1=C/C=C1\CCC[C@@]2(C)[C@H]1CC[C@@H]2[C@@](C)(O)CCCC(C)C [20(OH)D3, (5Z,7E)-9,10-secocholesta-5,7,10(19)-triene-3β,20-diol]
EC50 [4]: 570 nM
G0/G1 of viable cells (MG-63): 52%
G2/M of viable cells (MG-63): 15
S of viable cells (MG-63): 33%
Viable Cells (MG-63): 18
subG1 (MG-63; whole cell population): 82
cells in G1/0 ([1]; 48 h): 52±5%
cells in G2/M ([1]; 48 h): 35±8%
cells in S phase ([1]; 48 h): 13±12%
stimulation of transcriptional activity of the CYP24 promoter (CYP24 promoter): ~2.5 fold
cytokeratin 14 mRNA expression (cytokeratin 14; 1 h): 45 % of the control
cytokeratin 14 mRNA expression (cytokeratin 14; 6 h): 62 % of the control
